Test results: ChEMBL document CHEMBL5143556, “Molecular hybridization used to design and synthesize neo-tanshinlactone derivatives as PD-1/PD-L1 inhibitors” (Bioorg Med Chem, 2022)
pEC50: −log10 of the molar value. Active and inactive are the calls of the source. The rule behind the calls is not given here.

What was measured:
[1] = Cytotoxicity against T cell (unknown origin); format: toxicity, cell-based, Homo sapiens; details: T cells
MC-38 [2] = assay: Antitumour activity against mouse MC38 cells implanted in C57BL6 mouse assessed reduction in tumor size at 25 mg/kg, IG for 16 days; format: functional, organism-based; details: time 16.0 day
Jurkat [3] = assay: Induction of anti-CD3/CD28 antibodies-stimulated human Jurkat T cell activation co-cultured with MDA-MB-231 cells assessed as increase IFN-gamma protein expression in CD8+ cells at 5 uM after 48 hrs by flow cytometric analysis; format: functional, cell-based
MC-38 [4] = assay: Antitumour activity against mouse MC38 cells implanted in C57BL6 mouse assessed increase in CD4+CD8-Tim3+ cells at 25 mg/kg, IG for 16 days by flow cytometric analysis; format: functional, organism-based; details: time 16.0 day
Jurkat [5] = assay: Induction of anti-CD3/CD28 antibodies-stimulated human Jurkat T cell activation co-cultured with MDA-MB-231 cells assessed as increase granzyme B protein expression in CD8+ cells at 5 uM after 48 hrs by flow cytometric analysis; format: functional, cell-based
MC-38 [6] = assay: Antitumour activity against mouse MC38 cells implanted in C57BL6 mouse assessed increase in CD4+CD8- cells at 25 mg/kg, IG for 16 days by flow cytometric analysis; format: functional, organism-based; details: time 16.0 day
MC-38 [7] = assay: Antitumour activity against mouse MC38 cells implanted in C57BL6 mouse assessed reduction in tumor weight at 25 mg/kg, IG for 16 days; format: functional, organism-based; details: time 16.0 day
Jurkat [8] = assay: Induction of anti-CD3/CD28 antibodies-stimulated human Jurkat T cell activation co-cultured with MDA-MB-231 cells assessed as increase TNFalpha protein expression in CD8+ cells at 5 uM after 48 hrs by flow cytometric analysis; format: functional, cell-based
Jurkat [9] = assay: Induction of anti-CD3/CD28 antibodies-stimulated human Jurkat T cell activation co-cultured with MDA-MB-231 cells assessed as increase IFN-gamma protein expression in CD8+ cells in presence of PMA and ionomycin at 5 uM after 48 hrs by flow cytometric analysis; format: functional, cell-based
Jurkat [10] = assay: Induction of anti-CD3/CD28 antibodies-stimulated human Jurkat T cell activation co-cultured with MDA-MB-231 cells assessed as increase TNFalpha protein expression in CD8+ cells at 5 uM in presence of PMA and ionomycin after 48 hrs by flow cytometric analysis; format: functional, cell-based
Jurkat [11] = assay: Cytotoxicity against human Jurkat T cells co-cultured with MDA-MB-231 cells assessed as reduction in cell viability at 5 to 10 uM after 48 hrs by CFSE staining based flow cytometric analysis; format: toxicity; details: dose 5-10 µM
Jurkat [12] = assay: Induction of anti-CD3/CD28 antibodies-stimulated human Jurkat T cell activation co-cultured with MDA-MB-231 cells assessed as increase granzyme B protein expression in CD8+ cells at 5 uM in presence of PMA and ionomycin after 48 hrs by flow cytometric analysis; format: functional, cell-based
Jurkat [13] = assay: Cytotoxicity against human Jurkat T cells co-cultured with MDA-MB-231 cells assessed as reduction in cell viability at 50 uM after 48 hrs by CFSE staining based flow cytometric analysis; format: toxicity
ZR-75-1 = assay: Antiproliferative activity against human ZR-75-1 cells assessed as reduction in […]; format: functional, cell-based
SK-BR-3 = assay: Antiproliferative activity against human SK-BR-3 cells assessed as reduction in […]; format: functional, cell-based
MCF7 = assay: Antiproliferative activity against human MCF7 cells assessed as reduction in […]; format: functional, cell-based
MC-38 [14] = assay: Antitumour activity against mouse MC38 cells implanted in C57BL6 mouse assessed increase in CD4-CD8+Tim3+ cells at 10 to 25 mg/kg, IG for 16 days by flow cytometric analysis; format: functional, organism-based; details: dose 10-25 mg/kg, time 16.0 day
MC-38 [15] = assay: Antitumour activity against mouse MC38 cells implanted in C57BL6 mouse assessed reduction in tumor growth at 10 to 25 mg/kg, IG for 16 days by Ki67 staining based immunohistochemical analysis; format: functional, organism-based; details: dose 10-25 mg/kg, time 16.0 day
MC-38 [16] = assay: Antitumour activity against mouse MC38 cells implanted in C57BL6 mouse assessed increase in CD4+CD8-Tim3+ cells at 10 to 25 mg/kg, IG for 16 days by flow cytometric analysis; format: functional, organism-based; details: dose 10-25 mg/kg, time 16.0 day
Jurkat [17] = assay: Induction of cell proliferation in human Jurkat T cells co-cultured with MDA-MB-231 cells assessed as increase in cell viability at < 5 uM after 48 hrs by CFSE staining based flow cytometric analysis; format: functional
MC-38 [18] = assay: Antitumour activity against mouse MC38 cells implanted in C57BL6 mouse assessed reduction in tumor growth at 10 to 25 mg/kg, IG for 16 days by PCNA staining based immunohistochemical analysis; format: functional, organism-based; details: dose 10-25 mg/kg, time 16.0 day
MC-38 [19] = assay: Antitumour activity against mouse MC38 cells implanted in C57BL6 mouse assessed reduction in tumor weight at 10 to 25 mg/kg, IG for 16 days; format: functional, organism-based; details: dose 10-25 mg/kg, time 16.0 day
MC-38 [20] = assay: Antitumour activity against mouse MC38 cells implanted in C57BL6 mouse assessed increase in CD4-CD8+PD-1+ cells at 10 to 25 mg/kg, IG for 16 days by flow cytometric analysis; format: functional, organism-based; details: dose 10-25 mg/kg, time 16.0 day
MC-38 [21] = assay: Antitumour activity against mouse MC38 cells implanted in C57BL6 mouse assessed reduction in tumor size at 10 to 25 mg/kg, IG for 16 days; format: functional, organism-based; details: dose 10-25 mg/kg, time 16.0 day
MC-38 [22] = assay: Antitumour activity against mouse MC38 cells implanted in C57BL6 mouse assessed decrease in CD4+CD8-PD1+ cells at 10 to 25 mg/kg, IG for 16 days by flow cytometric analysis; format: functional, organism-based; details: dose 10-25 mg/kg, time 16.0 day

SMILES	pEC50 [1]	Activity (Jurkat [3])	Activity (Jurkat [5])	Activity (Jurkat [8])	Activity (Jurkat [9])	Activity (Jurkat [10])	Activity (Jurkat [12])	Activity (Jurkat [13])	Activity (Jurkat [17])	also measured
Cc1c(COc2cc(OCc3cccc(C#N)c3)c(CN3C[C@@H](O)C[C@H]3C(=O)O)cc2Cl)cccc1-c1ccc2c(c1)OCCO2	8.85	–	–	–	–	–	–	–	–	–
COc1nc(OCc2cccc(-c3ccccc3)c2C)ccc1CNCCNC(C)=O	7.96	Active	Active	Active	Active	Active	Active	–	–	Activity (MC-38 [2]): Active; Activity (MC-38 [4]): Active; Activity (MC-38 [6]): Active; Activity (MC-38 [7]): Active; Activity (Jurkat [11]): Non-Toxic
O=C(O)[C@@H]1Cc2ccccc2CN1Cc1ccc(OCc2cccc(-c3ccccc3)c2Br)cc1Oc1cc(=O)oc2c1ccc1ccccc12	–	Active	Active	Active	Active	Active	Active	Toxic	–	–
CCc1cccc2c1ccc1c3occ(C)c3c(=O)oc21	–	–	–	–	–	–	–	–	–	EC50 (ZR-75-1): 0.18 µg/mL; EC50 (SK-BR-3): 0.1 µg/mL; EC50 (MCF7): 0.45 µg/mL
Cc1c(COc2ccc(CN3Cc4ccccc4C[C@@H]3C(=O)O)c(Oc3cc(=O)oc4c3ccc3ccccc34)c2)cccc1-c1ccccc1	–	Active	Active	Active	Active	Active	Active	Toxic	Active	Activity (MC-38 [14]): Active; TGI (MC-38 [15]): Active; Activity (MC-38 [16]): Active; TGI (MC-38 [18]): Active; Activity (MC-38 [19]): Active; Activity (MC-38 [20]): Active; Activity (MC-38 [21]): Active; Activity (MC-38 [22]): Active
Cc1c(COc2ccc(CN3Cc4ccccc4CC3C(=O)O)c(Oc3cc(=O)oc4ccccc34)c2)cccc1-c1ccccc1 (racemic)	–	–	–	–	–	–	–	–	Active	–
